Laboratory results from patent US10556888B2, “Pyrazole compounds or salts thereof, preparation methods therefor, herbicidal compositions and use thereof” (QINGDAO KINGAGROOT CHEMICAL COMPOUNDS CO., LTD, priority 2015, dated 2020).

Experiments:
Type in all cases: in vivo
[1] = tested on: main crop (wheat, corn, rice, soybean, cotton, oilseed, millet and sorghum); experiment: Post-emergence test experiment, main crops (Table 2); set-up: key: Level 10: completely dead; Level 9: above 90% growth inhibition rate; Level 8: above 80% growth inhibition rate; Level 7: above 70% growth inhibition rate; Level 6: above 60% growth inhibition rate; Level 5: above 50% growth inhibition rate; Level 4: above 30% growth inhibition rate; Level 3: above 20% growth inhibition rate; Level 2: above 10% growth inhibition rate; Level 1: above 1-10% growth inhibition rate; Level 0: no effect; conditions: 3 weeks after spraying, greenhouse
Summary of the method: (§1)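 Compounds, dissolved in acetone, mixed with Tween 80 and diluted in water, were sprayed post-emergence onto greenhouse-grown weeds and crops at the 2-3 leaf stage (2-3 weeks post-sowing). Plants then grown 3 more weeks in the greenhouse before evaluation.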

[2] = tested on: Monocotyledonous and dicotyledonous weed; experiment: Post-emergence test experiment, weed control effect (Table 2); set-up: key to weed control effect, Setaria viridis (level) / weed control effect, Rorippa indica (level) / weed control effect, Abutilon theophrasti (level) / weed control effect, Echinochloa crus-galli (level) / weed control effect, Digitaria sanguinalis (level): Level 10: completely dead; Level 9: above 90% growth inhibition rate; Level 8: above 80% growth inhibition rate; Level 7: above 70% growth inhibition rate; Level 6: above 60% growth inhibition rate; Level 5: above 50% growth inhibition rate; Level 4: above 30% growth inhibition rate; Level 3: above 20% growth inhibition rate; Level 2: above 10% growth inhibition rate; Level 1: above 1-10% growth inhibition rate; Level 0: no effect; conditions: 3 weeks after spraying, greenhouse
Summary of the method: as §1

Monochoria vaginalis = experiment: Weed control effect evaluation in transplanted rice field; set-up: key: Level 10: completely dead; Level 9: above 90% growth inhibition rate; Level 8: above 80% growth inhibition rate; Level 7: above 70% growth inhibition rate; Level 6: above 60% growth inhibition rate; Level 5: above 50% growth inhibition rate; Level 4: above 30% growth inhibition rate; Level 3: above 20% growth inhibition rate; Level 2: above 10% growth inhibition rate; Level 1: above 1-10% growth inhibition rate; Level 0: no effect; conditions: transplanted rice field pot test, application rate 60 g/ha, 14 days after treatment
Experimental: (§2) Rice field soil was loaded into a 1/1,000,000 ha pot. The seeds of Echinochloa, Scirpus juncoides, Bidens tripartite and Sagittaria trifolia were sowed and gently covered with soil, then left to stand still in greenhouse in the state of 0.5-1 cm of water storage. The tuber of Sagittaria trifolia was planted in the next day or 2 days later. It was kept at 3-4 cm of water storage thereafter. The weeds were treated by dripping the WP or SC water diluents prepared according to the common preparation method of the compounds of the present invention with pipette homogeneously to achieve specified effective amount when Echinochloa, Scirpus juncoides and Bidens tripartite reached 0.5 leaf stage and Sagittaria trifolia reached the time point of primary leaf stage.
(§3) The fertility condition of Echinochloa, Scirpus juncoides, Bidens tripartite and Sagittaria trifolia 14 days after the treatment of the compound of the invention and the fertility condition of rice 21 days after the treatment of the compound of the invention respectively with the naked eye.
(§4) The seeds of Echinochloa crus-galli, Scirpus juncoides and Monochoria vaginalis were collected from Heilongjing and Jiangsu Province of China.

Scirpus juncoides = experiment: as above; set-up: key: Level 10: completely dead; Level 9: above 90% growth inhibition rate; Level 8: above 80% growth inhibition rate; Level 7: above 70% growth inhibition rate; Level 6: above 60% growth inhibition rate; Level 5: above 50% growth inhibition rate; Level 4: above 30% growth inhibition rate; Level 3: above 20% growth inhibition rate; Level 2: above 10% growth inhibition rate; Level 1: above 1-10% growth inhibition rate; Level 0: no effect; conditions: transplanted rice field pot test, application rate 60 g/ha, 14 days after treatment
Experimental: as §2, §3, §4

Echinochloa crus-galli = experiment: as above; set-up: key: Level 10: completely dead; Level 9: above 90% growth inhibition rate; Level 8: above 80% growth inhibition rate; Level 7: above 70% growth inhibition rate; Level 6: above 60% growth inhibition rate; Level 5: above 50% growth inhibition rate; Level 4: above 30% growth inhibition rate; Level 3: above 20% growth inhibition rate; Level 2: above 10% growth inhibition rate; Level 1: above 1-10% growth inhibition rate; Level 0: no effect; conditions: transplanted rice field pot test, application rate 60 g/ha, 14 days after treatment
Experimental: as §2, §3, §4

Rice = experiment: Transplanted rice safety evaluation; set-up: key: Level 10: completely dead; Level 9: above 90% growth inhibition rate; Level 8: above 80% growth inhibition rate; Level 7: above 70% growth inhibition rate; Level 6: above 60% growth inhibition rate; Level 5: above 50% growth inhibition rate; Level 4: above 30% growth inhibition rate; Level 3: above 20% growth inhibition rate; Level 2: above 10% growth inhibition rate; Level 1: above 1-10% growth inhibition rate; Level 0: no effect; conditions: transplanted 3 leaf stage japonica rice, application rate 60 g/ha, 21 days after treatment
Experimental: In addition, the rice field soil that loaded into the 1/1,000,000 ha pot was leveled to keep water storage at 3-4 cm depth. The 3 leaf stage rice (japonica rice) was transplanted at 3 cm of transplanting depth the next day. The compound of the present invention was treated by the same way after 5 days of transplantation. The fertility condition of Echinochloa, Scirpus juncoides, Bidens tripartite and Sagittaria trifolia 14 days after the treatment of the compound of the invention and the fertility condition of rice 21 days after the treatment of the compound of the invention respectively with the naked eye.

SMILES | effect on crop, corn (level) ([1]; 30 g/ha) | effect on crop, rice (level) ([1]; 30 g/ha) | effect on crop, wheat (level) ([1]; 30 g/ha) | weed control effect, Abutilon theophrasti (level) ([2]; 30 g/ha) | weed control effect, Bidens pilosa (level) ([2]; 30 g/ha) | weed control effect, Digitaria sanguinalis (level) ([2]; 30 g/ha) | weed control effect, Echinochloa crus-galli (level) ([2]; 30 g/ha) | weed control effect, Rorippa indica (level) ([2]; 30 g/ha) | weed control effect, Setaria viridis (level) ([2]; 30 g/ha) | Weed control effect, Monochoria vaginalis (activity level) (Monochoria vaginalis) | Weed control effect, Scirpus juncoides (activity level) (Scirpus juncoides) | Weed control effect, Echinochloa crus-galli (activity level) (Echinochloa crus-galli) | Rice (safety, activity level) (Rice) | also measured
COCc1c(S(C)(=O)=O)ccc(C(=O)c2c(C3CC3)nn(C)c2OC(=O)c2cn(C)nc2C)c1Cl [Compound 51] | 4 (Level 4: above 30% growth inhibition rate) | 3 (Level 3: above 20% growth inhibition rate) | 0 | 7 (Level 7: above 70% growth inhibition rate) | 7 (Level 7: above 70% growth inhibition rate) | 10 | 10 | 10 | 10 | 10 | 9 (Level 9: above 90% growth inhibition rate) | 10 | 0 | –
C#CCOCc1c(S(C)(=O)=O)ccc(C(=O)c2c(C3CC3)nn(C)c2OC(=O)c2cnn(C)c2)c1Cl [Compound 60] | 0 | 5 (Level 5: above 50% growth inhibition rate) | 0 | 6 (Level 6: above 60% growth inhibition rate) | 4 (Level 4: above 30% growth inhibition rate) | 7 (Level 7: above 70% growth inhibition rate) | 10 | 7 (Level 7: above 70% growth inhibition rate) | 7 (Level 7: above 70% growth inhibition rate) | 10 | 10 | 10 | 2 (Level 2: above 10% growth inhibition rate) | –
CCOCCOCc1c(S(C)(=O)=O)ccc(C(=O)c2cnn(C)c2OC(=O)c2cnn(C)c2)c1Cl [Compound 68] | 0 | 3 (Level 3: above 20% growth inhibition rate) | 0 | 7 (Level 7: above 70% growth inhibition rate) | 7 (Level 7: above 70% growth inhibition rate) | 7 (Level 7: above 70% growth inhibition rate) | 10 | 10 | 9 (Level 9: above 90% growth inhibition rate) | 10 | 10 | 7 (Level 7: above 70% growth inhibition rate) | 1 (Level 1: above 1-10% growth inhibition rate) | –
C#CCOCc1c(S(C)(=O)=O)ccc(C(=O)c2c(C)nn(C)c2OC(=O)c2cn(C)nc2C)c1C [Compound 76] | 1 (Level 1: above 1-10% growth inhibition rate) | 3 (Level 3: above 20% growth inhibition rate) | 0 | 7 (Level 7: above 70% growth inhibition rate) | 7 (Level 7: above 70% growth inhibition rate) | 7 (Level 7: above 70% growth inhibition rate) | 10 | 10 | 10 | 10 | 10 | 10 | 0 | –
CCn1nc(C2CC2)c(C(=O)c2ccc(S(C)(=O)=O)c(COCC(F)F)c2Cl)c1OC(=O)c1cn(C)nc1C [Compound 90] | 1 (Level 1: above 1-10% growth inhibition rate) | 3 (Level 3: above 20% growth inhibition rate) | 0 | 7 (Level 7: above 70% growth inhibition rate) | 7 (Level 7: above 70% growth inhibition rate) | 10 | 10 | 10 | 10 | 10 | 10 | 10 | 0 | –
C#CCOCc1c(S(C)(=O)=O)ccc(C(=O)c2cnn(C(C)C)c2OC(=O)c2cn(C)nc2C)c1Cl [Compound 100] | 1 (Level 1: above 1-10% growth inhibition rate) | 5 (Level 5: above 50% growth inhibition rate) | 0 | 7 (Level 7: above 70% growth inhibition rate) | 7 (Level 7: above 70% growth inhibition rate) | 7 (Level 7: above 70% growth inhibition rate) | 10 | 10 | 10 | 8 (Level 8: above 80% growth inhibition rate) | 10 | 10 | 0 | –
C#CCOCc1c(S(C)(=O)=O)ccc(C(=O)c2c(CC)nn(CC)c2OC(=O)c2c(Cl)c(CC)nn2C)c1Cl [Compound 107] | – | – | – | – | – | – | – | – | – | 10 | 10 | 9 (Level 9: above 90% growth inhibition rate) | 10 | effect on crop, corn (level) ([1]; 60 g/ha): 0; effect on crop, rice (level) ([1]; 60 g/ha): 7 (Level 7: above 70% growth inhibition rate); effect on crop, wheat (level) ([1]; 60 g/ha): 0; weed control effect, Abutilon theophrasti (level) ([2]; 60 g/ha): 10; weed control effect, Bidens pilosa (level) ([2]; 60 g/ha): 8 (Level 8: above 80% growth inhibition rate); weed control effect, Digitaria sanguinalis (level) ([2]; 60 g/ha): 8 (Level 8: above 80% growth inhibition rate); weed control effect, Echinochloa crus-galli (level) ([2]; 60 g/ha): 10; weed control effect, Rorippa indica (level) ([2]; 60 g/ha): 10; weed control effect, Setaria viridis (level) ([2]; 60 g/ha): 10
